# Data published in article PMC5011342, “A high throughput drug screening assay to identify compounds that promote oligodendrocyte differentiation using acutely dissociated and purified oligodendrocyte precursor cells” (BMC Research Notes, 2016).
# Read-outs that look alike come from different tables or passages of the source.
# Columns and labels:
# [1] = system: acutely dissociated and purified rat OPCs; assay: Acute OL differentiation assay (MBP expression/cell, immunofluorescent image quantification); type: cell-based; settings: sheet "All OLga data"; for activation at 0.4 µM: test compound at 0.4 uM, read-out: 0.4 uM (% Quet)
# Procedure, shortened: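 This acute differentiation assay used purified rat OPCs from postnatal day 6–7 pups, seeded into PDL/laminin-coated 96-well plates in differentiation medium lacking PDGF and FGF. Compounds were applied in quadruplicate after a 1–2 h preincubation at 37 °C, 10 % CO2, with 0.1 % DMSO negative and 40 ng/ml T3 positive controls in eight wells. After fixation on DIV4, anti-MBP immunofluorescence images yielded MBP expression/cell.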
# [2] = system: expanded OPCs; assay: cells; settings: for 0.1 µM (% DMSO) / 1 µM (% DMSO) / 10 µM (% DMSO): alamarBlue viability of expanded OPCs; for 0.1 µM (% DMSO): compound at 0.1 µM; for 1 µM (% DMSO): compound at 1 µM; for 10 µM (% DMSO): compound at 10 µM; for viability at 0.1 µM / viability at 1 µM / viability at 10 µM: Rattus norvegicus, 72 h
# Procedure, shortened: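 Toxicity screen: compounds added at 0.1, 1 and 10 µM to PDGF-AA-expanded OPCs in 96-well plates, 3-day incubation at 37 °C, 10% CO2, then alamarBlue 1:10 for 4 h with fluorescence readout. Results set screening doses of 10/2, 2/0.4 or 0.4/0.08 µM.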
# [3] = Rattus norvegicus, NCC library screen, relative to quetiapine
# [4] = Rattus norvegicus, test compound at 2 uM, NCC library screen, relative to quetiapine, read-out: 2 uM (% Quet)
# [5] = read-out: 0.1 µM (% DMSO), alamarBlue viability, NCC library compound at 0.1 µM, sheet "All Tox data"
# [6] = read-out: 1 µM (% DMSO), alamarBlue viability, NCC library compound at 1 µM, sheet "All Tox data"
# [7] = read-out: 10 µM (% DMSO), alamarBlue viability, NCC library compound at 10 µM, sheet "All Tox data"
# [8] = Rattus norvegicus, test compound at 10 uM, NCC library screen, relative to quetiapine, read-out: 10 uM (% Quet)
# [9] = Rattus norvegicus, 2 uM test compound, relative to quetiapine, read-out: OL differentiation, 2 uM (% Quet)
# [10] = Rattus norvegicus, 10 uM test compound, relative to quetiapine, read-out: OL differentiation, 10 uM (% Quet)
# [11] = read-out: 0.1 µM (% DMSO), alamarBlue viability of expanded OPCs, compound at 0.1 µM, sheet All Tox data
# [12] = read-out: 1 µM (% DMSO), alamarBlue viability of expanded OPCs, compound at 1 µM, sheet All Tox data
# [13] = read-out: 10 µM (% DMSO), alamarBlue viability of expanded OPCs, compound at 10 µM, sheet All Tox data
compound,measurement,setting,value
O=C1NC(C(=O)O)CS1 (stereo not shown) [2-oxothiazolidine-4-carboxylic acid],"OL differentiation, 2 uM (% Quet)","[1]; 2 uM test compound, relative to quetiapine",-5.5 % Quet
same,"OL differentiation, 10 uM (% Quet)","[1]; 10 uM test compound, relative to quetiapine",20.5 % Quet
same,0.1 µM (% DMSO),[2]; sheet All Tox data,78.9 % DMSO
same,1 µM (% DMSO),[2]; sheet All Tox data,89.6 % DMSO
same,10 µM (% DMSO),[2]; sheet All Tox data,83.7 % DMSO
CCc1oc2ccccc2c1C(=O)c1cc(Br)c(O)c(Br)c1 [Benzbromarone],activation at 0.4 µM,[1]; [3],-1.1%
same,activation at 2 µM,[1]; [4],23.7%
same,viability at 0.1 µM,[2]; [5],95.3%
same,viability at 1 µM,[2]; [6],93.2%
same,viability at 10 µM,[2]; [7],35.6%
O=C(O[C@@H]1C[C@@H]2C[C@H]3C[C@H](C1)N2CC3=O)c1c[nH]c2ccccc12 [Dolasetron],activation at 2 µM,[1]; [4],4.6%
same,activation at 10 µM,[1]; [8],18.1%
same,viability at 0.1 µM,[2]; [5],81%
same,viability at 1 µM,[2]; [6],81.8%
same,viability at 10 µM,[2]; [7],63.4%
Oc1ncnc2[nH]ncc12 [Allopurinol],activation at 2 µM,[1]; [4],-5.6%
same,activation at 10 µM,[1]; [8],-5.5%
same,0.1 µM (% DMSO),[2]; relative to DMSO control,83.9 % DMSO
same,1 µM (% DMSO),[2]; relative to DMSO control,89.7 % DMSO
same,10 µM (% DMSO),[2]; relative to DMSO control,89.6 % DMSO
CCn1cc(C(=O)O)c(=O)c2ccc(C)nc21 [Nalidixic Acid],activation at 2 µM,"[1]; Rattus norvegicus, test compound at 2 uM, MBP expression relative to quetiapine, NCC library screen, read-out: 2 uM (% Quet)",-14.9%
same,activation at 10 µM,"[1]; Rattus norvegicus, test compound at 10 uM, MBP expression relative to quetiapine, NCC library screen, read-out: 10 uM (% Quet)",-17.1%
same,0.1 µM (% DMSO),[2]; relative to DMSO control,93.0 % DMSO
same,1 µM (% DMSO),[2]; relative to DMSO control,93.1 % DMSO
same,10 µM (% DMSO),[2]; relative to DMSO control,92.5 % DMSO
CNC(=C[N+](=O)[O-])NCCSCc1csc(CN(C)C)n1 [Nizatidine],activation at 2 µM,[1]; [9],-1.7%
same,activation at 10 µM,[1]; [10],13%
same,viability at 0.1 µM,[2]; [11],92.6%
same,viability at 1 µM,[2]; [12],89%
same,viability at 10 µM,[2]; [13],96.6%
CN/C(=N/CCSCc1nc[nH]c1C)NC#N [Cimetidine],activation at 2 µM,[1]; [4],2.9%
same,activation at 10 µM,[1]; [8],-11.1%
same,0.1 µM (% DMSO),[2]; relative to DMSO control,89.7 % DMSO
same,1 µM (% DMSO),[2]; relative to DMSO control,89.2 % DMSO
same,10 µM (% DMSO),[2]; relative to DMSO control,92.3 % DMSO
NC(=O)N1c2ccccc2CC(=O)c2ccccc21 [Oxcarbazepine],activation at 2 µM,[1]; [9],-28.9%
same,activation at 10 µM,[1]; [10],-57.8%
same,viability at 0.1 µM,[2]; [11],102%
same,viability at 1 µM,[2]; [12],92%
same,viability at 10 µM,[2]; [13],73.5%
CN1CC[C@]23c4c5ccc(O)c4O[C@H]2c2[nH]c4ccccc4c2C[C@@]3(O)[C@H]1C5 [Oxymorphindole],activation at 0.08 µM,"[1]; Rattus norvegicus, test compound at 0.08 uM, NCC library screen, relative to quetiapine, read-out: 0.08 uM (% Quet)",-8.6%
same,activation at 0.4 µM,[1]; [3],-51.8%
same,viability at 0.1 µM,[2]; [5],85.7%
same,viability at 1 µM,[2]; [6],54.1%
same,viability at 10 µM,[2]; [7],12%
Clc1ccc(COC(Cn2ccnc2)c2ccc(Cl)cc2Cl)cc1 (stereo not shown) [Econazole],activation at 0.4 µM,[1]; [3],90%
same,activation at 2 µM,[1]; [4],-178%
same,0.1 µM (% DMSO),[2]; relative to DMSO control,178.0 % DMSO
same,1 µM (% DMSO),[2]; relative to DMSO control,195.6 % DMSO
same,10 µM (% DMSO),[2]; relative to DMSO control,29.6 % DMSO
CC(COc1ccccc1)NC(C)C(O)c1ccc(O)cc1 (stereo not shown) [Isoxsuprine],activation at 2 µM,[1]; [4],13.2%
same,activation at 10 µM,[1]; [8],2.2%
same,0.1 µM (% DMSO),[2]; relative to DMSO control,97.2 % DMSO
same,1 µM (% DMSO),[2]; relative to DMSO control,91.9 % DMSO
same,10 µM (% DMSO),[2]; relative to DMSO control,60.9 % DMSO
C[C@H](CCC(=O)O)[C@H]1CC[C@H]2[C@@H]3[C@H](O)C[C@@H]4C[C@H](O)CC[C@]4(C)[C@H]3CC[C@]12C [Chenodeoxycholic Acid],activation at 2 µM,[1]; [4],-24.3%
same,activation at 10 µM,[1]; [8],-7.9%
same,0.1 µM (% DMSO),[2]; relative to DMSO control,111.3 % DMSO
same,1 µM (% DMSO),[2]; relative to DMSO control,107.5 % DMSO
same,10 µM (% DMSO),[2]; relative to DMSO control,110.8 % DMSO
O=C(O)CCCc1ccccc1 [4-Phenylbutyric acid],activation at 2 µM,[1]; [4],9%
same,activation at 10 µM,[1]; [8],-4.1%
same,0.1 µM (% DMSO),[2]; relative to DMSO control,90.4 % DMSO
same,1 µM (% DMSO),[2]; relative to DMSO control,91.7 % DMSO
same,10 µM (% DMSO),[2]; relative to DMSO control,104.6 % DMSO
COCCOC(=O)C1=C(C)NC(C)=C(C(=O)OC(C)C)C1c1cccc([N+](=O)[O-])c1 (stereo not shown) [Nimodipine],activation at 0.4 µM,[1]; [3],-13.1%
same,activation at 2 µM,[1]; [4],4.8%
same,viability at 0.1 µM,[2]; [5],88%
same,viability at 1 µM,[2]; [6],87.4%
same,viability at 10 µM,[2]; [7],54.5%
